A short description of this series: Solubility determination (gravimetric, saturated aqueous samples). It counts as physicochemical. The protocol:
Es wurden 15 mL gesättigter wässriger Proben mit Niederschlag in 20 mL-Fläschchen mit dem Acetylsalicylsäure-Nicotinsäureamid-Co-Kristall (1:1), ASS und NIC angesetzt. Die Proben wurden bei Raumtemperatur mit einem Magnetrührer homogenisiert. Nach 1 h und 2 h werden von jeder Probe 4-mal ca. 1 mL Lösung entnommen (4-fach Bestimmung) und durch ein Vorspritzfilter in ein leeres 4 mL Fläschchen überführt. Die Fläschchen werden dann bis zur Verdampfung des Lösemittels offen stehengelassen. Die Fläschchen wurden leer, mit der gesättigten Lösung und nach dem Verdampfen gewogen. Die Löslichkeit in Masseprozent ergibt sich über die Differenz aus Gewicht nach dem Verdampfen und dem Leegewicht.

Values after ≈ are worked out from the molar mass of the structure shown.

Under “water”, `CC(=O)Oc1ccccc1C(=O)O` [Acetylsalicylsäure, 2-Acetoxybenzoesäure, reference compound] returned a solubility (thermodynamic) at 1 h of 4140 µg/mL (≈ 23 mM) and a solubility (thermodynamic) at 2 h of 4260 µg/mL (≈ 23.6 mM).
In the case of “Acetylsalicylsäure-Nicotinsäureamid-Co-Kristall”, the “ASS-Löslichkeit gesteigert um einen Faktor” value (ASS in co-crystal (ASS:NA 1:1) versus pure ASS, Fig. 7, after 1 h) is “ca. 2,5”. Under “water, 1 h”, the “Löslichkeit Nach 1 h” value is listed as 1,768 ω % and the “Löslichkeit Nach 1 h (ASS im Co-Kristall)” value was 1,054 ω %. Where the note is “water, 2 h”, the “Löslichkeit Nach 2 h” value is listed as 1,777 ω % and the “Löslichkeit Nach 2 h (ASS im Co-Kristall)” value is 1,059 ω %.

The term thermodynamic solubility denotes solubility found after equilibrating the solid with the medium.

(Values after patent EP4509497A1, “METHOD FOR PRODUCING ACETYLSALICYLIC ACID NICOTINAMIDE COCRYSTALS AND ACETYLSALICYLIC ACID NICOTINAMIDE COCRYSTALS WITH IMPROVED SOLUBILITY” (Ruhr-Universität Bochum, priority 2023, dated 2025).)
